{"source": "the NIST ThermoML archive (doi:10.1016/j.jct.2015.12.032)", "key": {"[1]": {"test": "Molar enthalpy of transition or fusion", "conditions": "Crystal; DSC"}, "[2]": {"conditions": "for mass density: 298.15 K, 101.33 kPa, Liquid, Pycnometric method"}}, "note": "± gives the expanded uncertainty stated by the source.", "data": [{"smiles": "CNC(=O)NC", "note": "[1,3-dimethylurea]", "values": [{"measurement": "Molar enthalpy of transition or fusion", "setting": "[1]", "value": "3.05 ± 0.0932", "unit": "kcal/mol"}, {"measurement": "Normal melting temperature", "setting": "[2]; Crystal, DTA", "value": "103.20 ± 1.1", "unit": "°C"}]}, {"smiles": "CC(C)=O", "note": "[acetone]", "values": [{"measurement": "mass density", "setting": "[2]", "value": "785.1 ± 1.4", "unit": "kg/m3"}]}, {"smiles": "CC#N", "note": "[acetonitrile]", "values": [{"measurement": "mass density", "setting": "[2]", "value": "777 ± 1.4", "unit": "kg/m3"}]}, {"smiles": "CCC(C)O", "note": "(stereo not drawn) [butan-2-ol]", "values": [{"measurement": "mass density", "setting": "[2]", "value": "802.4 ± 1.5", "unit": "kg/m3"}]}, {"smiles": "CCCCOC(C)=O", "note": "[butyl ethanoate]", "values": [{"measurement": "mass density", "setting": "[2]", "value": "875.8 ± 1.6", "unit": "kg/m3"}]}, {"smiles": "CCOC(C)=O", "note": "[ethyl acetate]", "values": [{"measurement": "mass density", "setting": "[2]", "value": "894.4 ± 1.6", "unit": "kg/m3"}]}, {"smiles": "CC(C)O", "note": "[propan-2-ol]", "values": [{"measurement": "mass density", "setting": "[2]", "value": "781.2 ± 1.4", "unit": "kg/m3"}]}]}
